Reference: patent US20250198977A1, “DETECTION METHOD, DRIED ALGAE MANUFACTURING METHOD, DRIED ALGAE, AND DRIED ALGAE QUALITY MANAGEMENT METHOD” (priority 2022, published 2025)

Key:
[1] = tested on: L-dried matter of Prochlorococcus sp. NIES-2885; test: Detection of chemical substances by delayed luminescence (DFI) of rehydrated L-dried matter; format: cell-based
Protocol: (§1) Various kinds of the L-dried matter obtained in the above-described cryo vial, and test water (water containing the chemical substances listed below at the concentrations (w/v) shown in Table 7) were prepared.
(§2) (metal mixed solution which was prepared by simulation based on formulation of a rock eluate from a core sample collected during a survey voyage of “Chikyu” by the Japan Agency for Marine-Earth Science and Technology; mainly containing lead and zinc (Yamagishi et al. Ecotoxicology (2018) 27:1303-1309)) • Copper • Zinc • Lead • Arsenic: in NIES-35, NIES-969, and NIES-2885, test water containing As(V) at 1 ppm (w/v) was also used for examination.
(§3) In a case of tests using freshwater algae, distilled water was used as the test water or control water, and in a case of tests using marine algae, filtered and sterilized seawater was used as the test water or control water.
(§4) Using a cuvette as a measurement container, 100 μL of the above-described cell suspension was dried to obtain 1 unit of the L-dried matter, and resuspended (rehydrated) in 3.5 mL of test water or control water.
(§5) After the rehydration, the L-dried matter and the test water or control water were rapidly and thoroughly mixed by pipetting to obtain a measurement sample (measurement object).
(§6) The sample was set in a weak luminescence measurement device (manufactured by Hamamatsu Photonics K.K., weak luminescence coefficient device, Type-7100). After exposure with excitation light from a light source attached to the device, delayed luminescence was measured immediately after a point of time of the rehydration (within 30 seconds), 15 minutes later, 30 minutes later, 60 minutes later, and 90 minutes later. The measurement time for each delayed luminescence was set to 10 seconds.
(§7) The sum of amounts of delayed luminescence (photon count) measured over 10 seconds was calculated and defined as the delayed fluorescence integral (DFI). In addition, for the sample after the rehydration, an absorbance at a wavelength of 600 nm with an optical path length of 1 cm was simultaneously measured. The DFI value per cell number of the L-dried matter was obtained by dividing the DFI by the value (DFI/OD600).

[2] = tested on: L-dried matter of Cyanobium sp. NIES-981; test: as above; format: cell-based
Protocol: as §1, §2, §3, §4, §5, §6, §7

[3] = tested on: L-dried matter of Synechococcus sp. NIES-969; test: as above; format: cell-based
Protocol: as §1, §2, §3, §4, §5, §6, §7

[4] = tested on: L-dried matter of Raphidocelis subcapitata NIES-35; test: as above; format: cell-based
Protocol: as §1, §2, §3, §4, §5, §6, §7

[5] = tested on: L-dried matter of NIES-35; test: Quality evaluation of stored L-dried matter with DCMU; format: cell-based, Raphidocelis subcapitata; conditions: DCMU 1 μM, after 15 minutes
Protocol: The L-dried matter stored at 4° C. for 2 weeks was compared with the L-dried matter stored at 37° C. for 2 weeks (accelerated deterioration product). In each case, DCMU was added to the L-dried matter of NIES-35 at the same time as the rehydration, such that the final concentration was 1 μM (DCMU addition group), and the delayed luminescence after 15 minutes was measured. In addition, the delayed luminescence was measured in the control (non-addition group) in which DCMU was not added, following the same procedure.

[6] = tested on: L-dried matter of NIES-981 on filter; test: Detection test for DCMU using L-dried matter on a filter; format: cell-based, Cyanobium sp.; conditions: DCMU 1 μM; 5 minutes after exposure; *P<0.01, N=4
Protocol: 25 to 50 mL of a culture solution of NIES-981 was passed through a filter (Whatman GF/F glass fiber filter paper (diameter: 47 mm)) set in a filtration unit, capturing the cells on the filter. After the filtration, 1 mL of a protective medium (Table 6) was immediately added dropwise onto the filter. The filter on which the cells were captured was subjected to low-temperature vacuum drying for 1 to 2 hours using a low-temperature vacuum drying device (manufactured by Forest Technology Systems Ltd., FLEXI-DRY) capable of performing L-drying. Subsequent steps were performed in the same manner as in the preparation of the L-dried sample in the vial described above, thereby obtaining L-dried matter of algae on the filter (FIG. 8).
The L-dried matter obtained on the filter was exposed to seawater or test water containing DCMU at a concentration of 1 μM, and the delayed luminescence was measured 5 minutes after the exposure.

[7] = tested on: L-dried matter of NIES-35; test: Detectable concentration by significant difference test, 15 min exposure of L-dried matter; format: cell-based, Raphidocelis subcapitata; conditions: exposed for 15 minutes
Description: The concentration of HA corresponds to a 100 million-fold dilution of a commercially available stock solution.

[8] = tested on: L-dried matter of NIES-981; test: Estimation of half-effective concentration (EC50) from delayed luminescence dose-response curve; format: cell-based, Cyanobium sp.; conditions: exposed simultaneously with rehydration; delayed luminescence after 15 minutes
Protocol: A dose-response curve of the L-dried matter with respect to a representative metal was created, and a half-effective concentration (EC50) was estimated. For the L-dried matter of NIES-981, zinc at 0 to 1 ppm (w/v) or Cy metal mixed solution at 0 to 10% (w/v) was exposed simultaneously with rehydration. After 15 minutes, the delayed luminescence was measured, and a dose-response curve was created.

[9] = tested on: same type of biocyanobacteria; test: 24-hour exposure test on the same type of cyanobacteria; format: cell-based; conditions: different bioassay method
Protocol: In a case where the half-effective concentration (EC50) was calculated, the zinc was 0.05 ppm (w/v) (FIG. 11) and the Cy metal mixed solution was 0.7% (w/v) (FIG. 12). Although it is not possible to simply compare the values because the values were obtained by different bioassay methods, the EC50 value during the zinc exposure was 0.07 ppm in a case where the 24-hour exposure test was performed on the same type of biocyanobacteria, and the EC50 value was similar to this value.

[10] = tested on: L-dried matter of NIES-35; test: Detection test for ammonia nitrogen using L-dried matter; format: cell-based, Raphidocelis subcapitata; conditions: 60 minutes after addition; T-test, P<0.05, N=3
Protocol: To the L-dried matter of NIES-35 obtained in the cryo vial, a sample containing ammonia nitrogen at a concentration shown in FIG. 10 was added, and the delayed luminescence was measured 60 minutes after the addition.

[11] = Pb^2+ 1 ppm, first value → later value
[12] = Zn^2+ 0.5 ppm, first value → later value

`[Cu+2]` [Cu^2+, Copper] was tested, and the “comparison with control group (DFI value)” value (from here on “comparison”) ([1]; Cu^2+ 1 ppm) was “lower”, the “comparison” value ([2]; Cu^2+ 1 ppm) was “higher” and the “comparison” value ([3]; Cu^2+ 1 ppm) was “lower”. For the same compound, the “comparison” value ([4]; Cu^2+ 1 ppm) was “lower”.
For `CN(C)C(=O)Nc1ccc(Cl)c(Cl)c1` [DCMU, 3-(3,4-dichlorophenyl)-1,1-dimethylurea, reference compound], the “delayed luminescence, DCMU-added group versus non-addition group” value ([5]; L-dried matter stored at 4° C. for 2 weeks) was “a difference was observed”, the “delayed luminescence, DCMU-added group versus non-addition group” value ([5]; L-dried matter stored at 37° C. for 2 weeks) was “no significant difference was observed” and the “amount of delayed luminescence, DCMU versus seawater” value [6] was “significant difference”. For the same compound, the “comparison” value ([1]; DCMU 1 μM, first value → later value) was “higher”, the “comparison” value ([2]; DCMU 1 μM) was “higher” and the “comparison” value ([3]; DCMU 1 μM) was “higher”. The “comparison” value ([4]; DCMU 1 μM) was “higher”, the “detectable concentration (significant difference test)” value [7] was no more than 0.1 µM and the “detectable concentration (significant difference test)” value ([7]; conversion of 0.1 μM) was “approximately 0.02 ppm”.
For `NO` [HA, Hydroxylamine, reference compound], the “comparison” value ([1]; HA 50 μM) was “lower”, the “comparison” value ([2]; HA 50 μM) was “lower” and the “comparison” value ([3]; HA 50 μM) was “lower”. The “comparison” value ([4]; HA 50 μM) was “lower” and the “detectable concentration (significant difference test)” value [7] was no more than 0.0005 µM.
For `[Pb+2]` [Pb^2+, Lead], the “comparison” value [1, 11] was “lower”, the “comparison” value ([2]; Pb^2+ 1 ppm) was “higher” and the “comparison” value [3, 11] was “lower”. For the same compound, the “comparison” value ([4]; Pb^2+ 1 ppm) was “higher”.
`[Zn+2]` [Zn^2+, Zinc] was tested, and the “half-effective concentration (EC50)” value [8] was 0.05 ppm (w/v), the “comparison” value [1, 12] was “lower” and the “comparison” value ([1]; Zn^2+ 1 ppm, first value → later value) was “lower”. The “comparison” value ([2]; Zn^2+ 0.5 ppm) was “higher”, the “comparison” value ([2]; Zn^2+ 1 ppm) was “higher” and the “comparison” value [3, 12] was “lower”. The “comparison” value ([3]; Zn^2+ 1 ppm) was “lower”, the “comparison” value ([4]; Zn^2+ 0.5 ppm) was “higher” and the “comparison” value ([4]; Zn^2+ 1 ppm) was “higher”. The “EC50 value during the zinc exposure” value [9] was 0.07 ppm.
With ammonia nitrogen [NH4—N] the “concentration at which a significant difference in the amount of delayed luminescence was confirmed” value [10] was no less than 10 mg/L.
